Measurements: BindingDB's records for doi:10.1021/jm2013997 (Oxagen, 2012)

What was measured:
[1] = Antagonist activity at CRTH2 in human eosinophils assessed as inhibition of PGD2-induced shape change by gated autofluorescence forward scatter analysis
[2] = Partial antagonist activity at CRTH2 in human eosinophils assessed as inhibition of PGD2-induced shape change by FACS analysis

| IC50 [1] | EC50 [2] | Structure (SMILES) |
| --- | --- | --- |
| 0.044 µM | – | C[C@H](Oc1ccc(F)cc1-c1ccc(C(=O)N2CCCC2(C)C)c(Cl)c1)C(=O)O |
| 0.626 µM | – | CN(C)c1nc(Cc2ccc(NC(=O)c3ccc(C(F)(F)F)cc3)cc2)nc(N(C)C)c1CC(=O)O [2-(4,6-bis(dimethylamino)-2-(4-(4-(trifluoromethyl)benzamido)benzyl)pyrimidin-5-yl)acetic acid] |
| – | 0.389 µM | COc1ccc2c(c1)c(CC(=O)O)c(C)n2C(=O)c1ccc(Cl)cc1 [indometacin] |
